“And” between values parts separate entries of the source, which are not always exact repeats. Equal entries are not always repeated.
How the values were obtained:
dogs = conditions: male and female dogs; ref McClain et al. 2005; cited from earlier work
Sprague-Dawley rats = conditions: cited from earlier work
[1] = ref SCCS 2022; cited from earlier work
Transthyretin (TTR) = Transthyretin (TTR) (Homo sapiens, UniProt P02766)
Procedure: DMSO (1% compound stock in incubation mixture). The incubation mixture was transferred to 96 -
was measured on a Berthold luminometer.
(§1) Serial dilutions of the compounds were incubated in Tris -buffer (pH 8.0) overnight at 4°C in the
(§2) incubation mixture). After incubation, TTR-bound and free T4 were separated on a Bio-Gel P-6DG
(§3) column. The eluate was added to assay medium after which TRβ CALUX cells were exposed for 24 h
(see CALUX bioassays). For this TRβ CALUX exposure, serum-free assay medium was used.

[2] = at 25°C, in vitro; ref Nan et al. (2014); cited from earlier work
ERα receptor = ERα receptor (Homo sapiens, UniProt P03372)
Procedure: using the U2-OS based CALUX cytotox bioassay. The cytotoxicity of each test chemical was assessed using the U2-OS based cytotoxicity CALUX bioassay. Concentrations causing >20% reduction of luminescence were considered cytotoxic.
cytotoxicity (relative induction in the cytotoxicity CALUX bioassay > 80%) were used for final
evaluation of analysis results.
induction in the cytotox CALUX bioassay > 80%) were used for final evaluation of analysis results.
All analysis results were expressed in molar (M) final in well.
For determination of the (anti-)ERα, (anti-)AR and (anti-)TRβ CALUX activities, CALUX cells were
seeded in assay medium. Following exposure of the CALUX cells to serial dilutions of the
compounds in triplicate for 24 h, the induction of luciferase production was quantified by measuring
luminescence following addition of the substrate luciferin. For antagonist assays, a fixed
concentration of assay agonist was present in each well, to generate a basal signal. On each plate, a
complete calibration curve for each respective bioassay was also analysed using the relevant reference
compounds. For the analyses in the presence of rat liver S9, 0.03% (v/v) of PB/BNF induced rat liver […]
Relative light units (RLUs) of the CALUX assays were analysed as follows. […]
effect concentrations (LOECs) and PC50 concentrations were determined; LOEC is defined as the […]

5-HT2A (h) = 5-HT2A (h) (Homo sapiens, UniProt P28223); experiment: biochemical; type: binding; conditions: read-out: 5-HT2A (h) (agonist RL): % inhibition @10 µM
Procedure: (§4) Chemicals that are flagged for a target are tested in follow-up dose-response assays to establish potency of the interaction.
Pharmacology profiling assays
(§5) targets. The list of targets included the original panel of 44 targets (including receptors, ion channels,
(§6) transporters and enzymes) recommended by 4 major pharmaceutical companies as significant
reasoned to link to pathological effects. Results showing an inhibition or stimulation higher than 50%
(§7) are considered to represent significant effects (i.e. a “hit”).
and 50% are indicative of weak to moderate effects and results showing an inhibition (or stimulation)
(§8) around the control level. For several targets, additional concentration effect assays were conducted to
(§9) determine the potency (IC50). The concentrations tested (in duplicate) ranged between 30 nM and 100

ERβ Human Estrogen NHR = molecular target: T1, ERβ Human Estrogen NHR (Homo sapiens, UniProt Q92731); experiment: biochemical; type: binding
T1 construct: Panlabs (named as assay provider)
Procedure: as §4
(§10) Relative light units (RLUs) of the CALUX assays were analysed as follows. For agonist assays,
(§11) background values (exposure to DMSO only) were subtracted, and the maximum activity of the
(§12) assay’s reference compound was set to 100%. For antagonist assays, the basal signal (exposure to fixed concentration of agonist only) was set to 100%. Activity of the samples was scaled accordingly,
(§13) resulting in expression of the data as “percentage of maximum reference response”. Graphs were
(§14) generated using the statistical software package GraphPad Prism V5.03. Using these graphs, lowest
(§15) effect concentrations (LOECs) and PC50 concentrations were determined; LOEC is defined as the
(§16) maximum reference compound activity for agonist assays, and 20% of the maximum reference
(§17) compound activity for antagonist assays. The PC50 is defined as the concentration where the activity
(§18) of the sample equals 50% of the maximum activity of the assay’s reference compound.
(§19) the test compound was divided by the amount of estrogens and androgens produced by the solvent
(§20) control-exposed cells. A sample was considered ‘active’ if it decreased the hormone production 0.8-
Pharmacology profiling assays
as §5, §6
reasoned to link to pathological effects.
as §7, §8, §9

[3] = +S9 (preincubation with rat liver S9)

T1 sequence (Q92731 whole entry): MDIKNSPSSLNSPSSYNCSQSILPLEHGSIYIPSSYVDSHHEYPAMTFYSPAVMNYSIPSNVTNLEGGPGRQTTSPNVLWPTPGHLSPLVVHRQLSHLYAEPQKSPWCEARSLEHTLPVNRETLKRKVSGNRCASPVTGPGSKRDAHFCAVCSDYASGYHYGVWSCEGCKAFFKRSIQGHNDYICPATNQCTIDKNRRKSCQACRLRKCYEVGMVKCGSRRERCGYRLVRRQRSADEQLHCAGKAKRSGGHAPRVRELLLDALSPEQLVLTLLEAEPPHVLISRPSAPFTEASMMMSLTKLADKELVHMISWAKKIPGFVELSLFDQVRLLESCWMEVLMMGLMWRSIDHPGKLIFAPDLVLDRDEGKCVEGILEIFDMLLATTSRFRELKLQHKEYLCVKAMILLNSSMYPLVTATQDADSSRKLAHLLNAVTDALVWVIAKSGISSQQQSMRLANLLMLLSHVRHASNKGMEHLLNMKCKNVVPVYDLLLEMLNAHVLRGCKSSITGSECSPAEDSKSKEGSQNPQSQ
ERα receptor, sequence (P03372 whole entry): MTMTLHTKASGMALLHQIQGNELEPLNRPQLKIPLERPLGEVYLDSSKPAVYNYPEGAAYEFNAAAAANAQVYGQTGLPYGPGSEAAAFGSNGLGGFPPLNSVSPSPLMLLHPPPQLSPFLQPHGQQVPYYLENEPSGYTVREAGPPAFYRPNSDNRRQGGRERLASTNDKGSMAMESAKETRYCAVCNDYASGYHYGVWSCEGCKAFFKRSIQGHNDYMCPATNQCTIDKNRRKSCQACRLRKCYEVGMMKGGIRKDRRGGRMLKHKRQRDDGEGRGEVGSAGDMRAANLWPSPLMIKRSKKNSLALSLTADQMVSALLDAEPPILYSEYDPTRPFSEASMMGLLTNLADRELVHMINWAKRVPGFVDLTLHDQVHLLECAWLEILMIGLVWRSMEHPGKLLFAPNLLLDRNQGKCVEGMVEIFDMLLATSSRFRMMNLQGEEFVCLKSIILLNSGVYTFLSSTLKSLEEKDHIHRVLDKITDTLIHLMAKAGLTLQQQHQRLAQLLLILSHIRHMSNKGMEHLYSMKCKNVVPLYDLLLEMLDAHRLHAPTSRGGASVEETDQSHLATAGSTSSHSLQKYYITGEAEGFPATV
5-HT2A (h), sequence (P28223 whole entry): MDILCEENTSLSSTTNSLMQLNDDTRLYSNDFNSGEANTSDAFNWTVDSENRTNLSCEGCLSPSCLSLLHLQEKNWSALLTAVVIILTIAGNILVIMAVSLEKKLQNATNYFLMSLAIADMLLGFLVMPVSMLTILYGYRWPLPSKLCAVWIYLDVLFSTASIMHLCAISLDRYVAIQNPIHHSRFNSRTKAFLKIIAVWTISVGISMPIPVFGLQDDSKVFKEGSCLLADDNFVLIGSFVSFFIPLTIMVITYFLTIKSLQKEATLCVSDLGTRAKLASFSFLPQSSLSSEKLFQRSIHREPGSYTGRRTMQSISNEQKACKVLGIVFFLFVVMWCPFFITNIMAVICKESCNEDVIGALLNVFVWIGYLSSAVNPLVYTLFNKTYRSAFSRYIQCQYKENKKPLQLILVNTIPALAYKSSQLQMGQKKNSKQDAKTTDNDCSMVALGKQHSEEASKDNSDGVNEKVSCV
Procedure for H295R cells: DMSO (1% compound stock in incubation mixture).
was measured on a Berthold luminometer.
as §1, §2, §3
For this TRβ CALUX exposure, serum-free assay medium was used.
wells plates in assay medium, and exposed for 48h to a serial dilution of the compound in triplicate
exposure, the assay medium was analysed on the ERα and AR CALUX bioassays as described
Changes in hormone levels compared to a vehicle control exposure
Preincubation with rat liver S9 fraction
To assess the effect of metabolism on the activity of the test
compound for these assays, preincubations with rat liver S9 were performed. Compounds (10 μl
DMSO stock solution) were incubated for 0 h (control) or 3 h (test condition) in a total volume of 1
ml TRIS buffer in the presence of 1% (v/v) PB/BNF induced rat liver S9 mix (including NADPH and
an NADPH-regenerating system). After incubation, the reaction was stopped by the addition of ice
cold acetone, and samples were frozen to stimulate protein precipitation. After thawing, the
precipitated protein fraction was subsequently removed by centrifugation. The supernatant, cont aining
the metabolites and any remaining non-metabolised parent compound, was concentrated under a
gentle nitrogen flow. After evaporating to dryness, the sample was taken up in 50 μl DMSO followed
by the addition of 50 μl TRIS buffer. This extract was used for the exposure of the hTPO inhibition,
as §10, §11, §12, §13, §14, §15, §16, §17, §18, §19, §20

SMILES | NOAEL, 4 weeks (dogs) [mg/kg/day] | NOAEL, 52 weeks (dogs) [mg/kg/day] | NOAEL, female rats (Sprague-Dawley rats; 5 ppm in feed, ref NTP 2008) [mg/kg] | NOAEL, male rats (PoD) (Sprague-Dawley rats; 5 ppm in feed, ref NTP 2008) [mg/kg] | LOAEL, male rats (Sprague-Dawley rats; ref SCCS 2022) [mg/kg] | In vitro Comet assay result [1] | TTR LOEC, Inhibition of binding of T4 to TTR (Transthyretin (TTR)) [µM] | TTR binding (thyroid) LOEC, +S9 (Transthyretin (TTR); [3]) [Log M] | LOEC for inhibition of TTR binding (Transthyretin (TTR); inhibition of binding of T4 to TTR) | TTR binding (thyroid) LOEC, −S9 (Transthyretin (TTR); −S9) [Log M] | pKa (dissociation constant) [2] | Estrogen synthesis, Increase/decrease (H295R cells) | Steroidogenesis (ERα) 17β-estradiol LOEC, +S9 (H295R cells; [3]) [Log M] | Steroidogenesis (ERα) 17β-estradiol LOEC, −S9 (H295R cells; −S9) [Log M] | Anti-ERα antiestrogen LOEC, +S9 (ERα receptor; +S9 (rat liver)) [Log M] | Anti-ERα antiestrogen LOEC, −S9 (ERα receptor; −S9) [Log M] | inhibition at 10 µM (5-HT2A (h)) [%] | ERβ LOEC (binding to receptor) (ERβ Human Estrogen NHR; pharmacology profiling, LOEC = 10% of maximum reference compound activity) | inhibition at 10 µM (ERβ Human Estrogen NHR; read-out: ERβ Human Estrogen NHR Binding (Agonist): % inhibition @10 µM) [%]
O=c1c(-c2ccc(O)cc2)coc2cc(O)cc(O)c12 [Genistein, 5,7-DIHYDROXY-3-(4-HYDROXYPHENYL)-4-BENZOPYRONE] | > 500 | > 500 | 0.5 | 0.3 | 7 | positive, and four were negative | 0.21 | −6.7 | 2.1 × 10^−7 ± 6.7 × 10^−8 | −6.7 | 7.25 ± 0.84 | No effect | >−6.7 | >−6 | – | – | – | – | –
O=c1c(-c2ccc(O)cc2)coc2cc(O)ccc12 [Daidzein, DAIDZEIN] | – | – | – | – | – | – | – | – | – | – | – | – | – | – | >−5 | >−5 | 38.9 | 3.25 nM and 3.2 nM | 100

From article PMC11220827 (Frontiers in Pharmacology, 2024)
